Experimental data: patent US20250009844A1, “MATURATION OF MUCOSAL DEFENSE AND GUT/LUNG FUNCTION IN THE PRETERM INFANT” (Novozymes A/S, priority 2017, published 2025)
“Also recorded” adds a separate entry of the source. No end group written: not given here.

Columns and labels:
[1] = system: BALB/c mice; assay: Murine model of acute graft versus host disease following stem cell transplantation, oral hBD-2 (Example 11); assay type: in vivo; conditions: for Intestinal T cell infiltration / Myeloid cell infiltration / Infiltration with CD45+ leucocytes: lamina propria; for Infiltration with CD45+ leucocytes: FACS analysis
Description: (§1) Bone marrow was harvested: hind limbs harvested from 2 female WT C57BL/6 mice aseptically. Skeletal muscle was removed and epiphysis cut away. Lumen of bone flushed with PBS and cells pelleted and taken up. Harvest of T-cells: spleens from 2 female WT C57BL/6 mice were meshed through a […] cell strainer into a PBS filled dish. Cells were taken up in PBS and transferred into a 50 mL falcon tube and spun down. Cells were taken up in 1 mL PBS and 20 μL of CD4 microbead+20 μL CD8 microbeads per spleen added for incubation for 20 min at 4 degrees C. Cells were washed with PBS and applied to MACS separation in order to positively select CD4+ and CD8+ cells. Positively selected T-cells were counted and taken up. Transplantation: directly after the second irradiation, all WT BALB/c recipient mice were injected with 5×1.000.000 BM cells (50 μL) i.v. into the retroorbital venous plexus under isoflurane anesthesia. 15 BALB/c mice were treated with 1.2 mg of hBD2/kg BW/day in 100 μL PBS per day vial oral gavage from day 0-10.
15 BALB/c mice received vehicle 100 μL PBS per day via oral gavage from day 0-10.
The mice were weighed daily for the initial 7 days and survival was monitored for 100 days.

[2] = system: PBMC cells; assay: PBMC cell viability, Alamar Blue, 24 hours (Example 8); assay type: cell-based, human; conditions: 1, 10 and 40 μg/ml, 0.6 and 20.0 pg/ml LPS
Description: FIG. 39. Cell viability of PBMC cells following exposure for 24 hours to Alamar Blue and HD5, hBD-1, hBD-2, hBD-3 and hBD-4 at concentrations of 1, 10 and 40 μg/ml.
PBMC cell viability following exposure for 24 hours to Alamar Blue and HD5,hBD-1, hBD-2, hBD-3 and hBD-4 at concentrations of 1, 10 and 40 μg/ml at 0.6 and 20.0 pg/ml LPS respectively (FIG. 39).

[3] = system: BALB/c mice; assay: Murine model of acute graft versus host disease, oral HD5 (Example 13); assay type: in vivo
Description: as §1, with “Treatment regime: 22 female BALB/c mice were irradiated with 4.5 Gy (2×498 sec) at intervals of at least 4 hours on day 0. Bone marrow” for “Bone marrow”, “of CD4 microbead +20 μL CD8” for “of CD4 microbead+20 μL CD8”, “isoflurane anesthesia. 22 BALB/c mice” for “isoflurane anesthesia. 15 BALB/c mice”, “mg of HD5/kg BW/day; 1.2 mg of hBD-2/kg BW/day or” for “mg of hBD2/kg BW/day in”, “hBD-2/kg BW/day or 100 μL” for “hBD2/kg BW/day in 100 μL”, “100 μL of PBS per” for “100 μL PBS per”
Survival was monitored for 60 days.

[4] = system: microbiota of the intestine; assay: Prophylactic high fat diet murine model, 16S microbial analyses (Example 1); assay type: in vivo, mice
Excerpt: The overall experimental design is shown in FIG. 1, top panel “Prophylactic study”. Mice: Mice were housed in trios, 4 cages per group. Feed intake was registered daily just before lights were turned off at 6 pm. Individual mice were subjected to experimental procedures in altered order both group and cage wise. Mice were kept at room temperature under a 12-hour light/dark cycle at SPF standard conditions. Diets: For dosing, the average weight was estimated to be 25 grams per mouse. Mice eat approximately 3 grams of feed per mouse per day.
Treatment regime: Mice were fed either a high fat diet (HFD) or a low fat (LF) control diet. The HFD contained 4 subgroups; a) hBD-2, b) HD5, c) hBD-2/HD5 and d) standard HFD without supplementation of defensins. Defensin concentration was 1,2 mg hBD-2 per kg mouse per day. HD5 was given in equimolar concentration to hBD-2.
Microbial analyses were carried out to study the microbiota of the intestine. Longitudinal 16S characterization was conducted on 4 paired samples from 60 mice, 240 samples in total. Each mouse was sampled prior to diet change, 1 week post diet change, 4 weeks post diet change and at termination, thus ensuring a thorough characterization of the faecal microbiota as a result of defensin treatment.

[5] = system: BALB/c mice; assay: Murine model of acute graft versus host disease, oral hBD-2 versus cyclosporine (Example 12); assay type: in vivo
Description: as §1, with “Treatment regime: 20 female BALB/c mice were irradiated with 4.5 Gy (2×498 sec) at intervals of at least 4 hours on day 0. Bone” for “Bone”, “CD4 microbead +20” for “CD4 microbead+20”, “anesthesia. 20” for “anesthesia. 15”, “BW/day (n=7); 50 mg cyclosporine/kg BW on days 0, 3, 6 and 9 (n=7) or” for “BW/day in”, “100 uL” for “100 μL”, “gavage (n=6)” for “gavage”
The mice were weighed at regular intervals during the study and survival was monitored for 90 days.

Substance: human beta defensin 2 (GIGDPVTCLKSGAICHPVFCPRRYKQIGTCGLPGTKCCKKP; ends and bridges not checked; cysteine pairing not given here; listed as Homo sapiens) [hBD-2]
- Mortality ([1]; 15 mice oral hBD-2 for 10 days vs 15 mice PBS, p<0.0001): highly statistically significant reduction of mortality
- Share of treated mice that had died by day 35 ([1]; 15 mice, 1.2 mg/kg BW/day oral gavage day 0-10): less than 30%
- Mice that had died by day 35 ([1]; 15 mice, 1.2 mg/kg BW/day oral gavage day 0-10, all 15 vehicle mice had died by day 35): 4
- Mice still alive by day 100 ([1]; 15 mice, 1.2 mg/kg BW/day oral gavage day 0-10, p<0.0001): 8
- IL-1β from myeloid cells ([1]; FACS analysis of the spleen): Reduced IL-1B production in myeloid cells; also recorded: reduction of IL-1β from myeloid cells
- Neutrophils ([1]; FACS analysis of the spleen): Reduced proportion of neutrophils; also recorded: reduced number of neutrophils
- Th1 cytokine production, IFN-γ ([1]; FACS analysis of the spleen, CD4, CD8 and CD69+CD4 T cells): reduced Th 1 cytokine production; also recorded: reduced Th1 cytokine production
- Th1 cytokine production, TNF-α ([1]; FACS analysis of the spleen, CD4 and CD8 T cells): reduced Th 1 cytokine production; also recorded: reduced Th1 cytokine production
- Weight loss ([1]; first 7 days following bone marrow transplantation): lost statistically significantly less weight
- Microarray analysis of colon samples ([1]; hBD-2 treated group versus PBS): decreased inflammation, leucocyte and myeloid cell migration and tissue remodelling
- Intestinal T cell infiltration [1]: Reduction of intestinal T cell and myeloid cell infiltration
- Myeloid cell infiltration [1]: Reduction of intestinal T cell and myeloid cell infiltration
- Infiltration with CD45+ leucocytes [1]: Reduced CD45+leucocyte cell migration
- Infiltration with CD45+ leucocytes ([1]; listed as hBD2): reduced the infiltration
- Intestinal T cell infiltration ([1]; listed as hBD2): reduced
- Myeloid cell infiltration ([1]; listed as hBD2): reduced
- IL-6 concentration ([1]; serum): reduction of TNF-α and IL-6 concentrations
- IL-10 concentration ([1]; serum): increased concentration of IL-10
- TNF-α concentration ([1]; serum): reduction of TNF-α and IL-6 concentrations
- Histology score of the colon ([1]; vs PBS): statistically significant reduction of histology score; also recorded: highly statistically lower
- Histology score of the liver ([1]; vs PBS): statistically significant reduction of histology score; also recorded: highly statistically lower
- Histology score of the small intestine ([1]; vs PBS): statistically significant reduction of histology score; also recorded: highly statistically lower
- Toxicity (PBMC cell viability) [2]: not toxic irrespectively of concentration; also recorded: not to be toxic
- Animals that had died by day 60 ([3]; 1.2 mg/kg BW/day oral gavage day 0-10, HD5 group of 8, PBS six out of eight died): none
- Mortality ([3]; 22 mice, oral treatment for 10 days): significant reduction of mortality
- Abundance of Barnesiella ([4]; colon, prophylactic treatment, p<0.03): statistically significant increase in abundance of Barnesiella
- Abundance of Lactobacillus ([4]; colon, prophylactic treatment, p=0.1): trend towards lower abundance of Lactobacillus
- Microbial presence and abundance (unifrac, genus analysis) ([4]; prophylactic oral defensin in HFD, 1,2 mg hBD-2 per kg per day, HD5 equimolar, mix 50%+50%): affected primarily the microbial presence
- Mortality ([5]; 7 mice oral hBD-2 for 10 days, p=0.03): statistically significant reduction of mortality
- Weight loss following bone marrow transplantation ([5]; compared with the PBS treated mice): lost statistically significantly less weight
- Animals that had died by day 90 ([5]; hBD2 1.2 mg/kg BW/day day 0-10 (n=7), cyclosporine 50 mg/kg BW on days 0, 3, 6 and 9 (n=7), PBS n=6, all but one died): 1
